Results on three molecules are retold here after ChEMBL document CHEMBL1153696, “Hypoglycemic polysaccharides from the tuberous root of Liriope spicata” (2009).

Assay [1] concerns Mus musculus. Description: Antidiabetic activity in BALB/c mouse type 2 diabetic model assessed as reduction of fasting blood glucose level at 100 mg/kg, po QD measured after 2 weeks by glucometry (Rvb=14.86 +/- 1.58 mmol/L). It counts as functional.
Assay [2] has as its system Mus musculus. The assay can be described thus: Antidiabetic activity in BALB/c mouse type 2 diabetic model assessed as reduction of fasting blood glucose level at 200 mg/kg, po QD measured after 2 weeks by glucometry (Rvb=14.86 +/- 1.58 mmol/L). The class given is functional.
In assay [3] the test system is Mus musculus. Description: Antidiabetic activity in BALB/c mouse type 2 diabetic model assessed as reduction of fasting blood glucose level at 100 mg/kg, po QD measured after 4 weeks by glucometry (Rvb=15.03 +/- 1.47 mmol/L). It counts as functional.
Assay [4] concerns Mus musculus. The assay can be described thus: Hypoglycemic effect in type 2 diabetic BALB/c mouse model assessed as reduction in blood glucose excursion at 100 to 200 mg/kg, po pretreated 60 mins before glucose challenge measured up to 3 hrs by one-touch glucometer relative to diabetic control. It counts as functional, organism-based.
Assay [5] has as its system Mus musculus. The assay can be described thus: Antidiabetic activity in BALB/c mouse type 2 diabetic model assessed as reduction of fasting blood glucose level at 200 mg/kg, po QD measured after 3 weeks by glucometry (Rvb=14.89 +/- 1.42 mmol/L). It counts as functional.
The test system of assay [6] is Mus musculus. Description: Antidiabetic activity in BALB/c mouse type 2 diabetic model assessed as reduction of fasting blood glucose level at 100 mg/kg, po QD measured after 3 weeks by glucometry (Rvb=14.89 +/- 1.42 mmol/L). It counts as functional.
For assay [7], the system named is Mus musculus. Description: Antidiabetic activity in BALB/c mouse type 2 diabetic model assessed as reduction of fasting blood glucose level at 100 mg/kg, po QD measured after 1 week by glucometry (Rvb=14.89 +/- 1.37 mmol/L). The class given is functional.
Assay [8] relates to Mus musculus. Description: Antidiabetic activity in BALB/c mouse type 2 diabetic model assessed as reduction of fasting blood glucose level at 200 mg/kg, po QD measured after 1 week by glucometry (Rvb=14.89 +/- 1.37 mmol/L). It counts as functional.
Assay [9] relates to Mus musculus. Description: Antidiabetic activity in BALB/c mouse type 2 diabetic model assessed as reduction of fasting blood glucose level at 200 mg/kg, po QD measured after 4 weeks by glucometry (Rvb=15.03 +/- 1.47 mmol/L). It counts as functional.
In assay [10] the test system is Mus musculus. The assay can be described thus: Hypoglycemic effect in type 2 diabetic BALB/c mouse model assessed as reduction in blood glucose excursion at 2 mg/kg, po pretreated 60 mins before glucose challenge measured up to 3 hrs by one-touch glucometer relative to diabetic control. It counts as functional, organism-based. Details: dose 2 mg/kg.
Assay [11] deals with Mus musculus. Description: Antidiabetic activity in BALB/c mouse type 2 diabetic model assessed as reduction of fasting blood glucose level at 2 mg/kg, po QD measured after 1 week by glucometry (Rvb=14.89 +/- 1.37 mmol/L). The class given is functional.
In assay [12] the test system is Mus musculus. Description: Antidiabetic activity in BALB/c mouse type 2 diabetic model assessed as reduction of fasting blood glucose level at 2 mg/kg, po QD measured after 4 weeks by glucometry (Rvb=15.03 +/- 1.47 mmol/L). It counts as functional.
Assay [13] relates to Mus musculus. The assay can be described thus: Antidiabetic activity in BALB/c mouse type 2 diabetic model assessed as reduction of fasting blood glucose level at 2 mg/kg, po QD measured after 2 weeks by glucometry (Rvb=14.86 +/- 1.58 mmol/L). The class given is functional.
Assay [14] has as its system Mus musculus. Description: Antidiabetic activity in BALB/c mouse type 2 diabetic model assessed as reduction of fasting blood glucose level at 2 mg/kg, po QD measured after 3 weeks by glucometry (Rvb=14.89 +/- 1.42 mmol/L). It counts as functional.

Molecules are shown by their SMILES. Active and inactive are the calls of the source. The calls are words filed in the database; no cut-off is given here.

As for `OC[C@H]1OC(CO)(OC[C@H]2O[C@@](CO[C@]3(CO[C@]4(CO[C@]5(CO[C@]6(CO[C@]7(CO)O[C@H](CO)[C@@H](O)[C@@H]7O)O[C@H](CO[C@]7(CO)O[C@H](CO)[C@@H](O)[C@@H]7O)[C@@H](O)[C@@H]6O)O[C@H](CO)[C@@H](O)[C@@H]5O)O[C@H](CO[C@]5(CO)O[C@H](CO)[C@@H](O)[C@@H]5O)[C@@H](O)[C@@H]4O)O[C@H](CO)[C@@H](O)[C@@H]3O)(OC[C@@]3(OC[C@@]4(OC[C@@]5(OC[C@@]6(OC[C@@]7(OC[C@@]8(OC[C@@]9(O[C@@H]%10O[C@H](CO)[C@@H](O)[C@H](O)[C@H]%10O)O[C@H](CO)[C@@H](O)[C@@H]9O)O[C@H](CO[C@]9(CO)O[C@H](CO)[C@@H](O)[C@@H]9O)[C@@H](O)[C@@H]8O)O[C@H](CO)[C@@H](O)[C@@H]7O)O[C@H](CO[C@]7(CO)O[C@H](CO)[C@@H](O)[C@@H]7O)[C@@H](O)[C@@H]6O)O[C@H](CO)[C@@H](O)[C@@H]5O)O[C@H](CO[C@]5(CO)O[C@H](CO)[C@@H](O)[C@@H]5O)[C@@H](O)[C@@H]4O)O[C@H](CO)[C@@H](O)[C@@H]3O)[C@@H](O)[C@@H]2O)[C@@H](O)[C@@H]1O` (stereo partly specified), the Activity in [1] amounted to 7.96 mmol/L; in assay [2], 7.25 mmol/L; in [3], 5.13 mmol/L; in assay [5], 5.44 mmol/L; in [6], 4.83 mmol/L; in assay [7], 9.71 mmol/L. Besides, the Activity in assay [8] came out at 9.35 mmol/L; in assay [9] it was 4.83 mmol/L. In addition, the result in [4] and in assay [10] was Active.

In the case of `CN(CCOc1ccc(CC2SC(=O)NC2=O)cc1)c1ccccn1` (stereo unspecified) [ROSIGLITAZONE], the outcome in assay [4] and in assay [10] was Active. Also, the Activity in assay [11] was found to be 9.58 mmol/L; in assay [12], 4.94 mmol/L; in [13] it was 5.54 mmol/L; in [14], 5.04 mmol/L.

For the molecule `OC[C@H]1O[C@@](CO)(OC[C@H]2O[C@@](CO[C@]3(CO[C@]4(CO)O[C@H](CO)[C@@H](O)[C@@H]4O)O[C@H](CO)[C@@H](O)[C@@H]3O)(OC[C@@]3(OC[C@@]4(OC[C@@]5(OC[C@@]6(OC[C@@]7(OC[C@@]8(OC[C@@]9(OC[C@@]%10(OC[C@@]%11(OC[C@@]%12(OC[C@@]%13(OC[C@@]%14(OC[C@@]%15(OC[C@@]%16(OC[C@@]%17(OC[C@@]%18(O[C@@H]%19O[C@H](CO)[C@@H](O)[C@H](O)[C@H]%19O)O[C@H](CO)[C@@H](O)[C@@H]%18O)O[C@H](CO[C@]%18(CO)O[C@H](CO)[C@@H](O)[C@@H]%18O)[C@@H](O)[C@@H]%17O)O[C@H](CO)[C@@H](O)[C@@H]%16O)O[C@H](CO)[C@@H](O)[C@@H]%15O)O[C@H](CO[C@]%15(CO)O[C@H](CO)[C@@H](O)[C@@H]%15O)[C@@H](O)[C@@H]%14O)O[C@H](CO)[C@@H](O)[C@@H]%13O)O[C@H](CO)[C@@H](O)[C@@H]%12O)O[C@H](CO[C@]%12(CO)O[C@H](CO)[C@@H](O)[C@@H]%12O)[C@@H](O)[C@@H]%11O)O[C@H](CO)[C@@H](O)[C@@H]%10O)O[C@H](CO)[C@@H](O)[C@@H]9O)O[C@H](CO[C@]9(CO)O[C@H](CO)[C@@H](O)[C@@H]9O)[C@@H](O)[C@@H]8O)O[C@H](CO)[C@@H](O)[C@@H]7O)O[C@H](CO)[C@@H](O)[C@@H]6O)O[C@H](CO[C@]6(CO)O[C@H](CO)[C@@H](O)[C@@H]6O)[C@@H](O)[C@@H]5O)O[C@H](CO)[C@@H](O)[C@@H]4O)O[C@H](CO)[C@@H](O)[C@@H]3O)[C@@H](O)[C@@H]2O)[C@@H](O)[C@@H]1O`, the Activity worked out at 7.05 mmol/L in [1]; 6.16 mmol/L in assay [2]; 4.63 mmol/L in [3]; 5.14 mmol/L in [5]; 4.7 mmol/L in assay [6]; 10.04 mmol/L in [7]. The Activity in assay [8] stood at 8.65 mmol/L; in assay [9], 4.78 mmol/L. The outcome in [4] and in assay [10] was Active.
